Measured values published in ChEMBL document CHEMBL2321831, “Design, synthesis, and biological evaluations of novel 7-[7-amino-7-methyl-5-azaspiro[2.4]heptan-5-yl]-8-methoxyquinolines with potent antibacterial activity against respiratory pathogens” (J Med Chem, 2013).
Converted amounts (≈) assume the structure as drawn.

How the values were obtained:
Streptococcus pneumoniae [1] = assay: Antibacterial activity against levofloxacin-intermediate and levofloxacin-resistant Streptococcus pneumoniae after 18 hrs by microbroth dilution method; format: functional
Chlamydia pneumoniae [2] = assay: Antibacterial activity against Chlamydophila pneumoniae CM-1 after 18 hrs by microbroth dilution method; format: functional; conditions: CM-1, 18 h
Chlamydia pneumoniae [3] = assay: Antibacterial activity against Chlamydophila pneumoniae AR39 after 18 hrs by microbroth dilution method; format: functional; conditions: AR39, 18 h
[4] = system: Mycoplasmoides pneumoniae; assay: Antibacterial activity against Mycoplasma pneumoniae ATCC 29085 after 18 hrs by microbroth dilution method; format: functional; conditions: ATCC 29085, 18 h
[5] = system: Mycoplasmoides pneumoniae; assay: Antibacterial activity against Mycoplasma pneumoniae 18-1 after 18 hrs by microbroth dilution method; format: functional; conditions: 18-1, 18 h
[6] = Cmax in Crj:CD rat serum at 5 mg/kg, po; format: ADME, organism-based; parameters: dose 5 mg/kg, route oral
[7] = Ratio of AUC (0 to 8 hrs) in Crj:CD rat liver to AUC (0 to 8 hrs) in Crj:CD rat serum at 5 mg/kg, po; format: ADME, organism-based; parameters: dose 5 mg/kg, route oral; conditions: read-out: Ratio AUC
Haemophilus influenzae = assay: Antibacterial activity against Haemophilus influenzae ATCC 49247 after 18 hrs by microbroth dilution method; format: functional; conditions: ATCC 49247, 18 h
hERG (KCNH2) [8] = molecular target: T1, hERG (KCNH2) (Homo sapiens, UniProt Q12809); assay: Inhibition of human ERG expressed in CHOK1 cells at 100 uM; format: cell-based; conditions: CHO-K1 cells expressing hERG
T1 sequence (Q12809 whole entry): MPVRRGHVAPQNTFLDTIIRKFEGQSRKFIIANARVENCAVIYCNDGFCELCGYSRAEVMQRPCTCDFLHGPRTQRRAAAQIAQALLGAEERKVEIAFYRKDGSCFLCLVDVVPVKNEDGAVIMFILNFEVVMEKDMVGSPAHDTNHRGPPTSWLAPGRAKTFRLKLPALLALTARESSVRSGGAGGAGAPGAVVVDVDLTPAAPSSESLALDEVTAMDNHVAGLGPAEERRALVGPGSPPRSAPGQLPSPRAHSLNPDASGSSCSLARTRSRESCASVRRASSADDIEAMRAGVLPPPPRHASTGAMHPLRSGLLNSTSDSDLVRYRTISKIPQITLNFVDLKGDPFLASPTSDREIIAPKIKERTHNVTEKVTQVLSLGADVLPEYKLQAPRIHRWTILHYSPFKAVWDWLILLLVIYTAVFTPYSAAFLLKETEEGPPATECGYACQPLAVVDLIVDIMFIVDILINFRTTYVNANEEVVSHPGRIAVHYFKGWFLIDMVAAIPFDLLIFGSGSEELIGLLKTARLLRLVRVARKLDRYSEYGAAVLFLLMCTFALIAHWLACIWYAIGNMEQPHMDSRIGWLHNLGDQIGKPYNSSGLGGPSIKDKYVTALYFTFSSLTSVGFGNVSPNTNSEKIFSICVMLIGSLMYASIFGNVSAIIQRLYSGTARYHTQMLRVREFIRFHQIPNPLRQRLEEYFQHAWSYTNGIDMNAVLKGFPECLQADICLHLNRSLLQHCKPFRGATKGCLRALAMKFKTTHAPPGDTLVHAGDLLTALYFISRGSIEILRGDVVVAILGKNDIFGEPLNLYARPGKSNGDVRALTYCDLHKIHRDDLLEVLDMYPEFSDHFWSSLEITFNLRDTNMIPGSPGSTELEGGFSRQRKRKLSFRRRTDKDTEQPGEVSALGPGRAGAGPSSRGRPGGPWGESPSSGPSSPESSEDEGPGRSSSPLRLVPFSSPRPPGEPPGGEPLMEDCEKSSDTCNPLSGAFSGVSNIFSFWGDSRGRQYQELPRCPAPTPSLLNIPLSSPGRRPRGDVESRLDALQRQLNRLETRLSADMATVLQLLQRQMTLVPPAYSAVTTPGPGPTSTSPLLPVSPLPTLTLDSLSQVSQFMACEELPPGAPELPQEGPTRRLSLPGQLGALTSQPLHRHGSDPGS

[9] = Chloroform-phosphate buffer apparent partition coefficient of the compound, P at pH 7.4
[10] = Plasma protein binding in human at 5 ug/mL by ultrafiltration method; format: ADME, cell-free; conditions: read-out: PPB (converted)
[11] = Bioavailability in cynomolgus monkey at 5 mg/kg, po; format: ADME, organism-based, Macaca fascicularis; conditions: in vivo
[12] = Half life in cynomolgus monkey serum at 5 mg/kg, po; format: ADME, organism-based, Macaca fascicularis; parameters: dose 5 mg/kg, route oral
hERG (KCNH2) [13] = molecular target: T1, hERG (KCNH2); assay: Inhibition of human ERG expressed in CHOK1 cells at 30 uM; format: cell-based; conditions: CHO-K1 cells expressing hERG
[14] = Drug uptake in cynomolgus monkey serum at 5 mg/kg, iv after 5 mins; format: ADME, organism-based, Macaca fascicularis; parameters: dose 5 mg/kg, route intravenous; conditions: read-out: Drug uptake
Moraxella catarrhalis = assay: Antibacterial activity against Moraxella catarrhalis ATCC 25238 after 18 hrs by microbroth dilution method; format: functional; conditions: ATCC 25238, 18 h
Streptococcus pneumoniae [15] = assay: Antibacterial activity against quinolone, penicillin-resistant Streptococcus pneumoniae 104835 after 18 hrs by microbroth dilution method; format: functional; conditions: Streptococcus pneumoniae, 104835, 18 h
Streptococcus pyogenes = assay: Antibacterial activity against Streptococcus pyogenes G-36 after 18 hrs by microbroth dilution method; format: functional; conditions: G-36, 18 h
[16] = Cmax in cynomolgus monkey serum at 5 mg/kg, po; format: ADME, organism-based, Macaca fascicularis; parameters: dose 5 mg/kg, route oral
Staphylococcus aureus [17] = assay: Antibacterial activity against levofloxacin-resistant and methicillin-resistant Staphylococcus aureus 870307 after 18 hrs by microbroth dilution method; format: functional; conditions: Staphylococcus aureus, 870307, 18 h
Pseudomonas aeruginosa = assay: Antibacterial activity against Pseudomonas aeruginosa PAO1 after 18 hrs by microbroth dilution method; format: functional; conditions: PAO1, 18 h
[18] = Ratio of AUC (0 to 8 hrs) in Crj:CD rat kidney to AUC (0 to 8 hrs) in Crj:CD rat serum at 5 mg/kg, po; format: ADME, organism-based; parameters: dose 5 mg/kg, route oral; conditions: read-out: Ratio AUC
[19] = AUC (0 to 8 hrs) in Crj:CD rat lung at 5 mg/kg, po; format: ADME, organism-based; parameters: time < 8 hr, dose 5 mg/kg, route oral
[20] = Primary phase half life in cynomolgus monkey serum at 5 mg/kg, iv; format: ADME, organism-based, Macaca fascicularis; parameters: dose 5 mg/kg, route intravenous; conditions: read-out: alphat1/2 (converted)
[21] = Drug recovery in Crj:CD rat urine at 5 mg/kg, po after 24 hrs; format: ADME, organism-based; parameters: dose 5 mg/kg, route oral; conditions: read-out: Drug recovery
[22] = Drug recovery in cynomolgus monkey urine at 5 mg/kg, po after 24 hrs; format: ADME, organism-based, Macaca fascicularis; parameters: dose 5 mg/kg, route oral; conditions: read-out: Drug recovery
[23] = Aqueous solubility of the compound; format: physicochemical
[24] = Drug recovery in cynomolgus monkey urine at 5 mg/kg, iv after 24 hrs; format: ADME, organism-based, Macaca fascicularis; parameters: dose 5 mg/kg, route intravenous; conditions: read-out: Drug recovery
[25] = Ratio of AUC (0 to 8 hrs) in Crj:CD rat lung to AUC (0 to 8 hrs) in Crj:CD rat serum at 5 mg/kg, po; format: ADME, organism-based; parameters: dose 5 mg/kg, route oral; conditions: read-out: Ratio AUC
[26] = AUC (0 to 8 hrs) in Crj:CD rat serum at 5 mg/kg, po; format: ADME, organism-based; parameters: time < 8 hr, dose 5 mg/kg, route oral
Bacillus subtilis = assay: Antibacterial activity against Bacillus subtilis IID 685 after 18 hrs by microbroth dilution method; format: functional; conditions: IID 685, 18 h
[27] = AUC (0 to 8 hrs) in Crj:CD rat liver at 5 mg/kg, po; format: ADME, organism-based; parameters: time < 8 hr, dose 5 mg/kg, route oral
[28] = AUC (0 to 24 hrs) in cynomolgus monkey serum at 5 mg/kg, po; format: ADME, organism-based, Macaca fascicularis, Plasma; parameters: time < 24 hr, dose 5 mg/kg, route oral
Escherichia coli = assay: Antibacterial activity against Escherichia coli NIHJ after 18 hrs by microbroth dilution method; format: functional
[29] = AUC (0 to 8 hrs) in Crj:CD rat kidney at 5 mg/kg, po; format: ADME, organism-based; parameters: time < 8 hr, dose 5 mg/kg, route oral
Klebsiella pneumoniae = assay: Antibacterial activity against Klebsiella pneumoniae TYPE1 after 18 hrs by microbroth dilution method; format: functional; conditions: TYPE1, 18 h
Staphylococcus aureus [30] = assay: Antibacterial activity against Staphylococcus aureus FDA 209-P after 18 hrs by microbroth dilution method; format: functional
[31] = AUC (0 to 8 hrs) in cynomolgus monkey serum at 5 mg/kg, iv; format: ADME, organism-based, Macaca fascicularis, Plasma; parameters: time < 8 hr, dose 5 mg/kg, route intravenous
Streptococcus pneumoniae [32] = assay: Antibacterial activity against penicillin-susceptible Streptococcus pneumoniae J24 after 18 hrs by microbroth dilution method; format: functional; conditions: J24, 18 h

CC1(C)S[C@@H]2[C@H](NC(=O)[C@H](N)c3ccc(O)cc3)C(=O)N2[C@H]1C(=O)O [AMOXICILLIN] gave an MIC50 (Streptococcus pneumoniae [1]) of 0.06 µg/mL (≈ 0.164 µM), an MIC80 (Streptococcus pneumoniae [1]) of 2 µg/mL (≈ 5.47 µM) and an MIC90 (Streptococcus pneumoniae [1]) of 2 µg/mL (≈ 5.47 µM).
In the case of CC[C@H]1OC(=O)[C@H](C)[C@@H](O[C@H]2C[C@@](C)(OC)[C@@H](O)[C@H](C)O2)[C@H](C)[C@@H](O[C@@H]2O[C@H](C)C[C@H](N(C)C)[C@H]2O)[C@](C)(O)C[C@@H](C)CN(C)[C@H](C)[C@@H](O)[C@]1(C)O [AZITHROMYCIN], the MIC50 (Streptococcus pneumoniae [1]) is reported as over 32 µg/mL, the MIC80 (Streptococcus pneumoniae [1]) is reported as over 32 µg/mL and the MIC90 (Streptococcus pneumoniae [1]) is reported as over 32 µg/mL.
With C[C@H]1NCc2cc(-c3ccc4c(=O)c(C(=O)O)cn(C5CC5)c4c3OC(F)F)ccc21 [GARENOXACIN] the MIC (Chlamydia pneumoniae [2]) was 0.016 µg/mL (≈ 0.0375 µM), the MIC (Chlamydia pneumoniae [3]) was 0.063 µg/mL (≈ 0.148 µM) and the MIC [4] was 0.06 µg/mL (≈ 0.141 µM). It also gave an MIC [5] of 0.12 µg/mL (≈ 0.281 µM), an MIC50 (Streptococcus pneumoniae [1]) of 0.25 µg/mL (≈ 0.586 µM) and an MIC80 (Streptococcus pneumoniae [1]) of 0.5 µg/mL (≈ 1.17 µM). It also gave an MIC90 (Streptococcus pneumoniae [1]) of 1 µg/mL (≈ 2.35 µM).
Compound CC1(C)S[C@@H]2[C@H](NC(=O)Cc3ccccc3)C(=O)N2[C@H]1C(=O)O [PENICILLIN G] has an MIC50 (Streptococcus pneumoniae [1]) of 0.06 µg/mL (≈ 0.179 µM), an MIC80 (Streptococcus pneumoniae [1]) of 2 µg/mL (≈ 5.98 µM) and an MIC90 (Streptococcus pneumoniae [1]) of 2 µg/mL (≈ 5.98 µM).
Work on COc1c(N2C[C@@H](N)C3(CC3)C2)c(F)cc2c(=O)c(C(=O)O)cn([C@@H]3C[C@@H]3F)c12.Cl.O yielded a Cmax [6] of 816 ng/mL, a Kp [7] of 9.4 and an MIC (Haemophilus influenzae) of under 0.003 µg/mL. The inhibition at 100 µM (hERG (KCNH2) [8]) was 14.1%, the P [9] was 8.8 and the fraction unbound at 5 ug/mL [10] was 0.582. For the same compound, the bioavailability [11] was 49%, the half-life [12] was 3.1 h and the inhibition at 30 µM (hERG (KCNH2) [13]) was 5.2%. For the same compound, the concentration at 5 min [14] was 4750 ng/mL, the MIC (Moraxella catarrhalis) was 0.012 µg/mL and the MIC (Streptococcus pneumoniae [15]) was 0.2 µg/mL. The MIC (Streptococcus pyogenes) was 0.05 µg/mL, the Cmax [16] was 1270 ng/mL and the MIC (Staphylococcus aureus [17]) was 0.39 µg/mL. It also gave an MIC (Pseudomonas aeruginosa) of 0.2 µg/mL, a Kp [18] of 12.2 and an AUC(0-t) at 8 h [19] of 6770 ng·h/mL. The half-life [20] was 2.1 h, the dose excreted at 24 h [21] was 23.1% and the dose excreted at 24 h [22] was 41%. It also gave a solubility [23] of 446 µg/mL, a dose excreted at 24 h [24] of 50.7% and a Kp [25] of 4.3. For the same compound, the AUC(0-t) at 8 h [26] was 1590 ng·h/mL, the MIC (Bacillus subtilis) was 0.05 µg/mL and the AUC(0-t) at 8 h [27] was 15000 ng·h/mL. The AUC(0-t) at 24 h [28] was 9450 ng·h/mL, the MIC (Escherichia coli) was 0.006 µg/mL and the AUC(0-t) at 8 h [29] was 19300 ng·h/mL. It also gave an MIC (Klebsiella pneumoniae) of 0.05 µg/mL, an MIC (Staphylococcus aureus [30]) of 0.012 µg/mL and an AUC(0-t) at 8 h [31] of 19400 ng·h/mL. It also gave an MIC (Streptococcus pneumoniae [32]) of 0.05 µg/mL.
In the case of CO/N=C1\CN(c2nc3c(cc2F)c(=O)c(C(=O)O)cn3C2CC2)CC1CN (centres undefined) [GEMIFLOXACIN], the MIC (Chlamydia pneumoniae [2]) is reported as 0.063 µg/mL (≈ 0.162 µM), the MIC (Chlamydia pneumoniae [3]) is reported as 0.125 µg/mL (≈ 0.321 µM) and the MIC [4] is reported as 0.25 µg/mL (≈ 0.642 µM). The MIC [5] was 0.25 µg/mL (≈ 0.642 µM).
